Measurements as given in patent US8168596B2, “Use of cycloartane compounds for treating arthritis” (NuLiv Holding Inc., priority 2008, dated 2012).

Legend:
MMP1 [1] = assay: Western blotting, kinase inhibitors on MMP1 protein expression induced by PMA in SW1353 cells; type: cell-based, human; conditions: UO126 10 μM, SP600125 25 μM, 24 h, then PMA 100 ng/mL 24 h
Method: Western blotting analysis was carried out based on the following procedure. Cells were washed and lysed in 0.2 mL of lysis buffer (1% NP-40, 50 mM Tris-HCl, pH 7.4, 180 mM NaCl, 1 mM EDTA, 1 mM PMSF, 1 mM NaF, 10 mM Na3VO4) for 30 min at 4° C. After centrifugation at 17500 g for 15 min, the supernatants of cell lysate were collected. Protein concentrations of the samples were measured using the bicinchoninic acid (BCA) protein assay kit according to the manufacturer's protocol (Pierce, Rockford, Ill., USA). Equal amounts of protein samples of concentrated conditioned medium (100 μg) or cell lysate supernatants (50 μg) were mixed with an appropriate volume of 4×SDS sampling buffer and separated on a 8% SDS-PAGE gel. The protein bands separated on the SDS-PAGE gel were blotted onto a polyvinylidene fluoride (PVDF) membrane. The blotted PVDF membrane was washed twice and blocked in freshly prepared Tris-buffered saline (TBS) containing 0.1% Tween-20 and 7% skim milk (TBST) for 2 hours at room temperature. The PVDF membrane was then incubated with a primary antibody against MMP1 protein (Santa Cruz Biotechnology, Santa Cruz, Calif.) for 18 hours at 4° C. Horseradish peroxidase-conjugated anti-goat antibody was used as the secondary antibody. Signals were visualized by an enhanced chemiluminescence kit (Clonetech, Palo Alto, Calif., USA) followed by exposure to X-ray films. […]

MMP1 [2] = conditions: UO126 10 μM, SP600125 25 μM, SB203580 5 μM, 24 h, then PMA 100 ng/mL 24 h
Method: The SW1353 cells were grown at 37° C. in a humidified incubator under 5% CO2 and 95% air in the culture medium as described above. The SW1353 cells were then sub-cultured into 6-well culture plates with serum free medium at an average amount of 2×10^5 cells per well and incubated for 24 hours. Then, the SW1353 cells were treated with 10 μM UO126 (MEK1-specific inhibitor), 25 μM, SP600125 (JNK-specific inhibitor), 5 μM SB203580 (p38-specific inhibitor), or 20 μM LY294002 (PI3K kinase inhibitor), and incubated for another 24 hours. Later, the SW1353 cells were treated with 100 ng/mL PMA and again incubated for 24 hours. Finally, the SW1353 cells were under cell extraction and the cell lysate was used for further luciferase analysis and western blotting analysis.
The SW1353 cells were grown at 37° C. in a humidified incubator under 5% CO2 and 95% air in the culture medium as described above. The SW1353 cells were then sub-cultured into 24-well culture plates and cultured for 24 hours. […] Following cell extraction, the cell lysate was centrifuged at 4° C., 20000 g for 30 minutes and then transferred to a 1.5 ml-microcentrifuge tube. Then, 100 μl buffer A (0.1 mM luciferin) and 350 μl buffer B (1 M MgSO4, 1 M Hepes (pH 7.8), 0.1 M ATP) were added into the microcentrifuge tube. The luciferase activity of final mixture was measured by a luminometer for 30 seconds.

**Q.** `N#CC(=C(/N)Sc1ccccc1N)/C(C#N)=C(/N)Sc1ccccc1N` [UO126] was tested. Which “protein expression by western blotting (effect of kinase inhibitors on MMP1 protein expression induced by PMA)” value (MMP1 [1]) did it give?
**A.** Its value is “significantly reduced”.

**Q.** And the “luciferase activity (control group 1 fold, PMA-only group 8 fold)” value (MMP1 [2])?
**A.** Its value is 2.6 fold.
